The text below walks through data of patent US5728815A, “Bone and prostate-derived protein factors affecting prostate cancer growth, differentiation, and metastasis” (priority 1994, dated 1998).

Each structure is given as a SMILES string.

Data set [1] concerns PSA mRNA in parental LNCaP cells. Put plainly: PSA gene expression, Northern analysis of PSA mRNA. The data set is classed as cell-based, human. To be noted: for Relative PSA mRNA level: 48 h, control defined as 1.0; for steady-state levels of PSA mRNA: parental LNCaP cells, result in words. As to the method: FIG. 6A. The effect of PSA gene expression in parental LNCaP cells treated with a variety of growth factors. The parental LNCaP cells were incubated with agents as indicated (control cells were incubated with T medium containing 2% TCM). Forty-eight hours after treatment, total cellular RNA was prepared and 20 μg of total cellular RNA was subjected to Northern analysis. Relative PSA mRNA levels (in parenthesis) were determined by densitometrical quantification, and the control is defined as 1.0; (A) TGF-α 100 (0.98); TGF-α 10 (1.01); TGF-α 1 (1.15); bFGF 100 (1.22); bFGF 10 (1.04); bFGF 1 (0.97); TGF-β 0.01 (0.72); TGF-β 0.1 (0.84); TGF-β 1 (0.53); NGF 1 (1.13); NGF 100 (1.08),
FIG. 6B. The effect of PSA gene expression in parental LNCaP cells treated with a neuropeptide and a variety of α1 and β2-adrenergic agonists. I, bombesin 100 (0.62); bombesin 10 (0.89); II. isoproterenol 100 (0.51); isoproterenol 10 (1.11); isoproterenol 1 (1.07); III. dibutyryl cAMP 0.01 (1.09); dibutyryl cAMP 0.1 (1.11); dibutyryl cAMP 1.0 (1.23); IV. phenylephrine 1 (1.10); phenylephrine 10 (1.08); phenylephrine 100 (1.14).
Total cellular RNA was prepared from frozen tissues by the 4M guanidinium thiocyanate extraction method (Chomcjymski & Sacchi, 1987). Typical yields of total cellular RNA were about 300 μg/200 mg tissue as quantified spectrophotometrically using 40 μg RNA/A260 unit. RNA was denatured in 50% formamide/18% formaldehyde at 55° C. and fractionated by electrophoresis in a 0.9% denaturing formaldehyde agarose gel. Samples were transferred onto a Zetaprobe membrane (Bio-Rad) by capillary method, and the membrane was then baked for 2 hours at 80° C. The membrane was then prehybridized in the presence of 1M NaCl, 10% dextran sulfate, 1% SDS, and 200 μg/ml salmon sperm DNA for at least 2 hours at 65° C. Hybridization was carried out at 65° C. overnight with a random-primer-labeled probe as indicated. The PSA cDNA, and sequence specific hGK-1 and PSA oligonucleotide probes were obtained from Dr. D. Tindall (Mayo Clinic, Rochester, Minn.) (Lundwall & Lilja, 1987). Finally, the membrane was washed under high stringency conditions (0.5×SSC, 1% SDS at 65° C.). Autoradiograms were prepared by exposing Kodak X-Omat AR film to the membrane at -80° C. with intensifying screens.

For data set [2] the following is noted: prevents clinical use in human treatment; cited from earlier work.
The subject of the next data set is prostate tumor cell. As to conditions: both in vitro and in vivo; cited from earlier work.

In the case of `CCCC(=O)Nc1ncnc2c1ncn2[C@@H]1O[C@@H]2COP(=O)(O)O[C@H]2[C@H]1OC(=O)CCC` [dibutyryl cAMP], the “Relative PSA mRNA level” value in data set [1] (concentration 0.01 (unit not given)) was determined as 1.09; in data set [1] (concentration 0.1 (unit not given)), 1.11; in data set [1] (concentration 1.0 (unit not given)) it was 1.23. Also, in data set [1], the “steady-state levels of PSA mRNA” value is reported as “no apparent increases”.
Turning to `CC(C)NCC(O)c1ccc(O)c(O)c1` (centres unmarked) [isoproterenol], the “Relative PSA mRNA level” value in data set [1] (concentration 1 (unit not given)) was found to be 1.07; in data set [1] (concentration 10 (unit not given)) it was 1.11; in data set [1] (concentration 100 (unit not given)), 0.51. In addition, the “steady-state levels of PSA mRNA” value in data set [1] is listed as “no apparent increases”.
Regarding `CNC[C@H](O)c1cccc(O)c1` [phenylephrine], the “steady-state levels of PSA mRNA” value in data set [1] is on record as “no apparent increases”.
Regarding `Cc1ccc(C(=O)Nc2ccc(S(=O)(=O)O)c3cc(S(=O)(=O)O)cc(S(=O)(=O)O)c23)cc1NC(=O)c1cccc(NC(=O)Nc2cccc(C(=O)Nc3cc(C(=O)Nc4ccc(S(=O)(=O)O)c5cc(S(=O)(=O)O)cc(S(=O)(=O)O)c45)ccc3C)c2)c1` [suramin], in data set [2], the toxicity in vivo entry was “extreme toxicity”. In the data set with prostate tumor cell, the “prostate tumor cell growth” value is recorded as “inhibit prostate tumor cell growth”.
